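1) Cells in 96-well plates. 2) Compound, 48 h, 5 concentrations. 3) Linear interpolation between surrounding doses. 4) Unreached endpoint = highest concentration. TGI: concentration producing complete growth inhibition.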
Key:
Experiment in all cases: inhibition of tumour cell growth, NCI panel, 48 h
OVCAR-3 ovarian = test system: OVCAR-3 ovarian
TK-10 renal = test system: TK-10 renal
SK-OV-3 ovarian = test system: SK-OV-3 ovarian
MDA-MB-231 breast = test system: MDA-MB-231 breast
NCI/ADR-RES ovarian = test system: NCI/ADR-RES ovarian
ACHN renal = test system: ACHN renal
CCRF-CEM leukemia = test system: CCRF-CEM leukemia
786-0 renal = test system: 786-0 renal
OVCAR-4 ovarian = test system: OVCAR-4 ovarian
MDA-MB-435 = test system: MDA-MB-435
LOX IMVI melanoma = test system: LOX IMVI melanoma
SN12C renal = test system: SN12C renal
HOP-62 NSCLC = test system: HOP-62 NSCLC
HCC-2998 colon = test system: HCC-2998 colon
EKVX NSCLC = test system: EKVX NSCLC
U251 CNS = test system: U251 CNS
HOP-92 NSCLC = test system: HOP-92 NSCLC
MOLT-4 leukemia = test system: MOLT-4 leukemia
PC-3 prostate = test system: PC-3 prostate
UACC-62 melanoma = test system: UACC-62 melanoma
SK-MEL-5 melanoma = test system: SK-MEL-5 melanoma
RXF 393 renal = test system: RXF 393 renal
OVCAR-5 ovarian = test system: OVCAR-5 ovarian
UO-31 renal = test system: UO-31 renal
IGROV1 ovarian = test system: IGROV1 ovarian
SK-MEL-28 melanoma = test system: SK-MEL-28 melanoma
SF-539 CNS = test system: SF-539 CNS
HCT-15 colon = test system: HCT-15 colon
KM12 colon = test system: KM12 colon
SF-295 CNS = test system: SF-295 CNS
OVCAR-8 ovarian = test system: OVCAR-8 ovarian
DU-145 prostate = test system: DU-145 prostate
M14 melanoma = test system: M14 melanoma
NCI-H522 lung = test system: NCI-H522 lung
NCI-H23 lung = test system: NCI-H23 lung
SW-620 colon = test system: SW-620 colon
SNB-75 CNS = test system: SNB-75 CNS
RPMI-8226 leukemia = test system: RPMI-8226 leukemia
SNB-19 CNS = test system: SNB-19 CNS
HCT-116 colon = test system: HCT-116 colon
UACC-257 melanoma = test system: UACC-257 melanoma
MCF7 breast = test system: MCF7 breast
A549 NSCLC = test system: A549 NSCLC
BT-549 breast = test system: BT-549 breast
HT29 colon = test system: HT29 colon
K-562 leukemia = test system: K-562 leukemia
SK-MEL-2 melanoma = test system: SK-MEL-2 melanoma
MDA-N = test system: MDA-N
SF-268 CNS = test system: SF-268 CNS
COLO 205 colon = test system: COLO 205 colon
T-47D breast = test system: T-47D breast
NCI-H226 lung = test system: NCI-H226 lung
HS 578T breast = test system: HS 578T breast
CAKI-1 renal = test system: CAKI-1 renal
MALME-3M melanoma = test system: MALME-3M melanoma
SR leukemia = test system: SR leukemia
NCI-H460 lung = test system: NCI-H460 lung
A498 renal = test system: A498 renal
HL-60(TB) leukemia = test system: HL-60(TB) leukemia

Measured: TGI

O=C(O)c1ccccc1C(=O)Nn1cnnc1
not listed: T-47D breast | NCI-H226 lung | HS 578T breast | CAKI-1 renal | MALME-3M melanoma | SR leukemia | NCI-H460 lung | A498 renal | HL-60(TB) leukemia
> 100 µM: all other assays above

Fc1ccccc1-c1nn2c(C34CC5CC(CC(C5)C3)C4)nnc2s1
not listed: TK-10 renal | KM12 colon | MCF7 breast | BT-549 breast | HL-60(TB) leukemia
> 100 µM: all other assays above

O=C1c2ccccc2C2=Nc3ccncc3CN12
not listed: MDA-MB-231 breast | MDA-MB-435 | LOX IMVI melanoma | T-47D breast | HS 578T breast | A498 renal
> 100 µM: all other assays above

OC(C/C(=N\N1CCCCC1)c1cccs1)(C(F)(F)F)C(F)(F)F
not listed: OVCAR-5 ovarian | BT-549 breast
> 10 µM: all other assays above

Reference: PubChem BioAssay (NCI)
